# Experimental data reported in the PolyMetriX glass transition set.
# ± gives the standard deviation of the reports.
row,Compound,glass transition temperature [°C]
1,*=Nc1cccc(/N=C(\c2ccccc2)c2ccc(C(=*)c3ccccc3)cc2)c1 (repeat unit),179.00
2,*CC(*)(C)c1ccc(C(C)C)cc1 (repeat unit),140.00
3,*c1cc(C(=O)NCCCC)cc(N2C(=O)c3ccc(-c4ccc5c(c4)C(=O)N(*)C5=O)cc3C2=O)c1 (repeat unit),291.00
4,*CC(*)(C)C(=O)OCCCCCCCCCCCCOc1ccc2cc(C(=O)Oc3ccccc3)ccc2c1 (repeat unit),12.00
5,*CCCCCCCCCCCCCCCCCCNC(=O)Cc1ccc(CC(=O)N*)cc1 (repeat unit),78.00
6,*/C=C/c1cc(OCCCCCCCCCCCCCCCC)c(/C=C/c2ccc(*)cc2)cc1OCCCCCCCCCCCCCCCC (repeat unit),33.00
7,*Oc1ccc(C(C)(C)c2ccc(OC(=O)OCCN(CCOC(*)=O)c3ccc4[nH]c5ccccc5c4c3)cc2)cc1 (repeat unit),90.00
8,*/C=C/c1ccc(*)c(-c2c(OCC(CC)CCCC)ccc3ccccc23)c1 (repeat unit),118.00
9,*CC(*)C(=O)OCCOc1ccc(C(C)(C)c2ccc(OCCO)cc2)cc1 (repeat unit),22.00
10,*CC(=O)Nc1ccc(Cc2ccc(NC(=O)COc3ccc4ccccc4c3Sc3c(O*)ccc4ccccc34)cc2)cc1 (repeat unit),241.00
11,*/C(C#N)=C(\C#N)n1c(=O)c2cc3c(=O)n(*)c(=O)c3cc2c1=O (repeat unit),210.00
12,*C(=O)Nc1ccc(Oc2ccc(C3(c4ccc(Oc5ccc(NC(=O)c6ccc7c(c6)C(=O)N(c6ccc(N8C(=O)c9ccc(*)cc9C8=O)cc6)C7=O)cc5)cc4)NC(=O)c4ccccc43)cc2)cc1 (repeat unit),322.00
13,*Oc1c(C)cc(C(C)(C)c2cc(C)c(OC(*)=O)c(C)c2)cc1C (repeat unit),193.00
14,*c1ccc(-c2nc3cc(-c4ccc5nc(*)c(-c6ccc7ccccc7c6)nc5c4)ccc3nc2-c2ccc3ccccc3c2)cc1 (repeat unit),333.00
15,*c1ccc(Oc2cc3ccccc3cc2Oc2ccc(N3C(=O)c4ccc(Oc5cc6ccccc6cc5Oc5ccc6c(c5)C(=O)N(*)C6=O)cc4C3=O)cc2)cc1 (repeat unit),222.00
16,*/C(C#N)=C/c1cc(OCCCCCCCCCC)c(/C=C(\C#N)c2cc(OCCCCCCCCCC)c(*)cc2OC)cc1OC (repeat unit),198.00
17,*Nc1cccc(CCc2ccc(NC(=O)c3cccc(C(*)=O)c3)cc2)c1 (repeat unit),203.00
18,*CCCCCN1C(=O)c2ccc(C(=O)Oc3ccc(-c4ccc(OC(=O)c5ccc6c(c5)C(=O)N(*)C6=O)cc4)cc3)cc2C1=O (repeat unit),147.00
19,*O[Si](*)(C)CCc1cc(C(=O)Oc2ccc(OCCCCCCCCCCCC)cc2)ccc1-c1ccc(C(=O)Oc2ccc(OCCCCCCCCCCCC)cc2)cc1 (repeat unit),76.00
20,*Oc1c(C)cc(*)cc1C(C)CCCCC (repeat unit),60.00
21,*Nc1ccc(C(c2ccc(NC(=O)c3ccc4cc(C(*)=O)ccc4c3)cc2)(P2(=O)Oc3ccccc3-c3ccccc32)P2(=O)Oc3ccccc3-c3ccccc32)cc1 (repeat unit),241.00
22,*c1ccc(Oc2ccc(N3C(=O)c4ccc(Oc5cccc6c(Oc7ccc8c(c7)C(=O)N(*)C8=O)cccc56)cc4C3=O)cc2)cc1 (repeat unit),240.00

row,Compound,glass transition temperature [°C]
1,*C(=O)Nc1ccc(Sc2ccc(NC(=O)c3ccc4c(c3)C(=O)N(c3ccc(Oc5ccc(C6(c7ccc(Oc8ccc(N9C(=O)c%10ccc(*)cc%10C9=O)cc8)cc7)NC(=O)c7ccccc76)cc5)cc3)C4=O)cc2)cc1 (repeat unit),312.00
2,*C1CCC(CC2CCC(N3C(=O)c4ccc(-c5ccc6c(c5)C(=O)N(*)C6=O)cc4C3=O)C(C)C2)CC1C (repeat unit),260.00
3,*CCCCCCN1C(=O)c2ccc(-c3ccc(-c4ccc5c(c4)C(=O)N(*)C5=O)cc3)cc2C1=O (repeat unit),141.00
4,*Oc1ccc(C(c2ccccc2)(c2ccccc2)c2ccc(Oc3ccc(C(=O)Nc4ccc(NC(=O)c5ccc(*)cc5)cc4)cc3)cc2)cc1 (repeat unit),254.00
5,*Oc1cc(Oc2ccc(NC(=O)c3cc(NC(=O)C45CC6CC(CC(C6)C4)C5)cc(C(=O)Nc4ccc(*)cc4)c3)cc2)ccc1C12CC3CC(CC(C3)C1)C2 (repeat unit),345.00
6,*CC(*)(CC(=O)OCC)C(=O)O (repeat unit),135.00
7,*CCCCSSCCCCO* (repeat unit),-76.00
8,*Oc1ccc(C(C)(C)c2ccc(OC(=O)OCCCCCOC(*)=O)cc2)cc1 (repeat unit),49.50
9,*CC(*)c1ccccc1C(=O)OCCCCCC (repeat unit),45.00
10,*CC(C)(C)CS(=O)(=O)CC(C)(C)COC(=O)O* (repeat unit),50.00
11,*CC(C)COC(=O)c1ccc(C(=O)O*)cc1 (repeat unit),55.00
12,*c1c(C)cc(C(c2cccc(C(F)(F)F)c2)c2cc(C)c(N3C(=O)c4ccc(-c5ccc6c(c5)C(=O)N(*)C6=O)cc4C3=O)c(C)c2)cc1C (repeat unit),312.90
13,*c1ccc(C(=O)OCCCCCCOc2ccc(/C=C3\CCCC/C(=C\c4ccc(OCCCCCCOC(=O)c5ccc(-c6nnc(*)o6)cc5)cc4)C3=O)cc2)cc1 (repeat unit),104.00
14,*c1ccc(Oc2ccc(Oc3ccc(N4C(=O)c5ccc(Oc6ccc(Sc7ccc(Oc8ccc9c(c8)C(=O)N(*)C9=O)cc7)cc6)cc5C4=O)cc3)cc2)cc1 (repeat unit),201.00
15,*CC(*)(C)C(=O)OCC1COC(CP(=O)(OCC)OCC)O1 (repeat unit),115.00
16,*CCCCCC(*)CCCCCCCCCC (repeat unit),-65.00
17,*Oc1ccc(C(=O)OCCOCCOC(=O)c2ccc(OC(*)=O)cc2)cc1 (repeat unit),51.00
18,*/C=C/c1ccc(/C=C/c2ccc3c(c2)C(CCCCCCOc2ccc4ccc(=O)oc4c2)(CCCCCCOc2ccc4ccc(=O)oc4c2)c2cc(*)ccc2-3)cc1 (repeat unit),104.00
19,*C1C(=O)N(CCOc2ccc(-c3ccc(C#N)cc3)cc2)C(=O)C1* (repeat unit),150.00
20,*CC(*)(C)C(=O)OCCC[Si](O[Si](C)(C)C)(O[Si](C)(C)C)O[Si](C)(C)C (repeat unit),72.4
21,*Oc1ccc(CC(NC(=O)CCc2ccc(OC(=O)CCCCCCC(*)=O)cc2)C(=O)OCC)cc1 (repeat unit),50.00
22,*c1ccc(Oc2ccc(Oc3ccc(N4C(=O)c5ccc(Oc6ccc(C7(c8ccc(Oc9ccc%10c(c9)C(=O)N(*)C%10=O)cc8)CCC(c8ccccc8)CC7)cc6)cc5C4=O)cc3)c(C(C)(C)C)c2)cc1 (repeat unit),236.00

row,Compound,glass transition temperature [°C]
1,*CC(*)C(=O)OCC1(CC)COC(c2ccccc2)OC1 (repeat unit),50.00
2,*C(=O)c1ccc2c(c1)C(=O)N(c1ccc(-c3ccc(N4C(=O)c5ccc(*)cc5C4=O)c(C)c3)cc1C)C2=O (repeat unit),365.00
3,*c1ccc(Sc2ccc(S(*)(=O)=O)cc2)cc1 (repeat unit),215.00
4,*CCCCC(=O)Oc1ccc(-c2ccc(OC(=O)c3ccc4c(c3)C(=O)N(*)C4=O)cc2)cc1 (repeat unit),123.00
5,*Oc1cccc2ccc(Oc3ccc(NC(=O)c4cccc(C(=O)Nc5ccc(*)cc5)c4)cc3)cc12 (repeat unit),256.00
6,*c1cccc(C(=O)Nc2cccc(S(=O)(=O)c3cccc(NC(=O)c4cccc(N5C(=O)c6ccc(-c7cccc8c7C(=O)N(*)C8=O)cc6C5=O)c4)c3)c2)c1 (repeat unit),261.00
7,*CC(*)(C)C(=O)OCc1cc(Cl)ccc1Cl (repeat unit),27.80
8,*CCCCC(=O)Oc1ccc(OC(=O)c2ccc3c(c2)C(=O)N(*)C3=O)cc1 (repeat unit),89.31
9,*c1ccc(Cc2ccc(N3C(=O)c4ccc(-c5ccc6c(c5)C(=O)N(*)C6=O)cc4C3=O)cc2)cc1 (repeat unit),308.00 ± 6.8
10,*CCCCCCCCCCCOc1ccc(CCc2ccc(O*)cc2C)cc1 (repeat unit),3.90
11,*Nc1ccc(N[Se]*)cc1 (repeat unit),55.00
12,*c1ccc(Cc2ccc(N3C(=O)C(Cl)=C(Oc4ccc(C(c5ccc(OC6=C(Cl)C(=O)N(*)C6=O)cc5)(C(F)(F)F)C(F)(F)F)cc4)C3=O)cc2)cc1 (repeat unit),189.00
13,*CC(CSCCCCC)O* (repeat unit),-68.00
14,*c1cccc(Oc2cccc(Oc3cccc(Oc4cccc(Oc5cccc(N6C(=O)c7ccc(Oc8ccc9c(c8)C(=O)N(*)C9=O)cc7C6=O)c5)c4C#N)c3)c2C#N)c1 (repeat unit),176.00
15,*Oc1ccc(C(=O)c2cccc(C(=O)c3ccc(*)c(C(C)C)c3)c2)cc1C (repeat unit),147.00
16,*c1ccc(-c2cc(C(C)(C)C)c(Oc3ccc(N4C(=O)c5ccc6c7c(ccc(c57)C4=O)C(=O)N(*)C6=O)cc3C(F)(F)F)c(C(C)(C)C)c2)cc1 (repeat unit),456.00
17,*CCOCCOCCOCCOCCOc1ccc(/C=C(\C)c2ccc(O*)cc2)cc1 (repeat unit),17.00
18,*c1ccc(-c2ccc(N3C(=O)c4ccc(S(=O)(=O)c5ccc6c(c5)C(=O)N(*)C6=O)cc4C3=O)cc2C(F)(F)F)c(C(F)(F)F)c1 (repeat unit),320.00
19,*C(=O)OCCCCOC(=O)c1ccc(N2C(=O)c3ccc(*)cc3C2=O)cc1 (repeat unit),100.50
20,*CC(*)(C)C(=O)OCCCCCCCCCCCCCC (repeat unit),-72.00
21,*CCCCCCN1C(=O)C(=O)N(c2ccc(Oc3ccc(N4C(=O)C(=O)N(*)C4=O)cc3)cc2)C1=O (repeat unit),172.00
